Assay results reported in ChEMBL document CHEMBL3991601, “The target landscape of clinical kinase drugs” (Science, 2017).
Activity calls are given as the source filed them. For most assays here, no stated cut-off is given here; in the data, actives have a measured Kd and inactives only a lower limit.

Assays:
[1] = molecular target: T1, Dual specificity mitogen-activated protein kinase kinase 3 (Homo sapiens, UniProt P46734)
T1 sequence (P46734 whole entry): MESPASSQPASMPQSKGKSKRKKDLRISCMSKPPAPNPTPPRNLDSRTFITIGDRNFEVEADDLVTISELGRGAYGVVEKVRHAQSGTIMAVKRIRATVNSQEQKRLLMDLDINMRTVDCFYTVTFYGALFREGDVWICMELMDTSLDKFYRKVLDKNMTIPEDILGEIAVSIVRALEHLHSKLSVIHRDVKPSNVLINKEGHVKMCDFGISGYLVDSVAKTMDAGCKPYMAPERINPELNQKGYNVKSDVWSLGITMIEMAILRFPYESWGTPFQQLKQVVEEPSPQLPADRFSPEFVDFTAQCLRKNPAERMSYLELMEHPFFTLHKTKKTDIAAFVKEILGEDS

[2] = molecular target: T2, AarF domain-containing protein kinase 1 (Homo sapiens, UniProt Q86TW2)
T2 sequence (Q86TW2 whole entry): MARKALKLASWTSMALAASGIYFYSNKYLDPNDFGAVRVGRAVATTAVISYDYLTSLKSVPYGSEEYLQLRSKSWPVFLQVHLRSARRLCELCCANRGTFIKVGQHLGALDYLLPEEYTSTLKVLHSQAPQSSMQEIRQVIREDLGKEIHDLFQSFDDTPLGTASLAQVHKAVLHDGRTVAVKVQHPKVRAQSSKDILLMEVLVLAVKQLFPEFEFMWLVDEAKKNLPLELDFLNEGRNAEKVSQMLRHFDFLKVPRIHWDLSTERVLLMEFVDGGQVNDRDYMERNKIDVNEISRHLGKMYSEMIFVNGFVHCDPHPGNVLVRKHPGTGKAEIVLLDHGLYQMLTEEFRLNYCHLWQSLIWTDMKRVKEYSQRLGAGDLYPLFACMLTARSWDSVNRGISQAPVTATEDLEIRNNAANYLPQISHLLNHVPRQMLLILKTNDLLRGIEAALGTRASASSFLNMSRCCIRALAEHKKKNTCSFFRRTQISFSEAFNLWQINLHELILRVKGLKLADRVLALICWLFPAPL

Ephrin type-B receptor 6 = molecular target: T3, Ephrin type-B receptor 6 (Homo sapiens, UniProt O15197)
T3 sequence (O15197 whole entry): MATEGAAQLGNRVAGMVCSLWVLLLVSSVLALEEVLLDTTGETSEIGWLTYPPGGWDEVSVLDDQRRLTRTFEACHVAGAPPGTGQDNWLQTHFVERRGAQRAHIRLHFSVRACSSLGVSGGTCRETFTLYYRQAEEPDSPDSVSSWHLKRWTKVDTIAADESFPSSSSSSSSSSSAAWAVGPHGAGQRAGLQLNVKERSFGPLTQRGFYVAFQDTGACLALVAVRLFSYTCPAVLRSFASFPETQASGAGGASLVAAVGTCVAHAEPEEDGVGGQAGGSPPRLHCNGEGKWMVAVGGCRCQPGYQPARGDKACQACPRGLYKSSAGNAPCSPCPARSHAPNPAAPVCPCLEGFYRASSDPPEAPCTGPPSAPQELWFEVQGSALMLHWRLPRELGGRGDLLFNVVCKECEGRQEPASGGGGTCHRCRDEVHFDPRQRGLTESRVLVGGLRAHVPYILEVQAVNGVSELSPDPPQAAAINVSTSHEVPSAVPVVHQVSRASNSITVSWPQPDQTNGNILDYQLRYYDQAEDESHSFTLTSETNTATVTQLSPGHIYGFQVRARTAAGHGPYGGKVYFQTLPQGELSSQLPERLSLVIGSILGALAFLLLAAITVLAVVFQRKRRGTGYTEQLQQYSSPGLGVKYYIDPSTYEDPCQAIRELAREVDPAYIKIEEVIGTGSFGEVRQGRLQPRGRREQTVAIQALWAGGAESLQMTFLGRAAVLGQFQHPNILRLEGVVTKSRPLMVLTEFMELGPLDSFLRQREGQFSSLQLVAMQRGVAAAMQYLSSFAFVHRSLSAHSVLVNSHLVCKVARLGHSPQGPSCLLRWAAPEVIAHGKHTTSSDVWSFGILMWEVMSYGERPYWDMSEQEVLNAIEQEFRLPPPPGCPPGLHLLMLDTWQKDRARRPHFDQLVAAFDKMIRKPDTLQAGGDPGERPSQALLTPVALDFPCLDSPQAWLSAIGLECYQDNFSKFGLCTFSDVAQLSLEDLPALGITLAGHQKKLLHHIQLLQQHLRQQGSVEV

[3] = molecular target: T4, Serine/threonine-protein kinase D3 (Homo sapiens, UniProt O94806)
T4 sequence (O94806 whole entry): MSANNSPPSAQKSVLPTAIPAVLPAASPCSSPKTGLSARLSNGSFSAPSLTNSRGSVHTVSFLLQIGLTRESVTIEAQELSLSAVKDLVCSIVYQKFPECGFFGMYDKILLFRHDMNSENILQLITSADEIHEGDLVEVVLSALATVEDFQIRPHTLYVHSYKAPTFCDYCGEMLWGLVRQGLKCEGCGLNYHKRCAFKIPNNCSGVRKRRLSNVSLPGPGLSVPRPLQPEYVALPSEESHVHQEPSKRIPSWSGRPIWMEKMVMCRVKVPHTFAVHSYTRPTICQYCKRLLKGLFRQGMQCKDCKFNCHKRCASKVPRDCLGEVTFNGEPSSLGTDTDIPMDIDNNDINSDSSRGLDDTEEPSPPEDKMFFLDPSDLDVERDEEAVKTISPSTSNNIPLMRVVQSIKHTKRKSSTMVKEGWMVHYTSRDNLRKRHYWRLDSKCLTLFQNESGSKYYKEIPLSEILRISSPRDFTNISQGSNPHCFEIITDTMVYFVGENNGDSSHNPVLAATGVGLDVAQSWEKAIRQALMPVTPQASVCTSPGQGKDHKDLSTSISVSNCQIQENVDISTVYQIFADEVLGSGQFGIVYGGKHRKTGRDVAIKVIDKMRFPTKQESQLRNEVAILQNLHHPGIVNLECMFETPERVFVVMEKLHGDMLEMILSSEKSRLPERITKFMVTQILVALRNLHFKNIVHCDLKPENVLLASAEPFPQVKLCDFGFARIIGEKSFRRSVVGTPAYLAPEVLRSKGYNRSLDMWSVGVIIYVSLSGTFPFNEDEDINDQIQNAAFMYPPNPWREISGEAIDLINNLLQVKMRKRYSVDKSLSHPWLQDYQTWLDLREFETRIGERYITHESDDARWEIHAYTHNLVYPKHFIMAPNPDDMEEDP

[4] = molecular target: Serine/threonine-protein kinase N2 (Homo sapiens, UniProt Q16513)
Sequence of Serine/threonine-protein kinase N2 (Q16513 whole entry, canonical isoform): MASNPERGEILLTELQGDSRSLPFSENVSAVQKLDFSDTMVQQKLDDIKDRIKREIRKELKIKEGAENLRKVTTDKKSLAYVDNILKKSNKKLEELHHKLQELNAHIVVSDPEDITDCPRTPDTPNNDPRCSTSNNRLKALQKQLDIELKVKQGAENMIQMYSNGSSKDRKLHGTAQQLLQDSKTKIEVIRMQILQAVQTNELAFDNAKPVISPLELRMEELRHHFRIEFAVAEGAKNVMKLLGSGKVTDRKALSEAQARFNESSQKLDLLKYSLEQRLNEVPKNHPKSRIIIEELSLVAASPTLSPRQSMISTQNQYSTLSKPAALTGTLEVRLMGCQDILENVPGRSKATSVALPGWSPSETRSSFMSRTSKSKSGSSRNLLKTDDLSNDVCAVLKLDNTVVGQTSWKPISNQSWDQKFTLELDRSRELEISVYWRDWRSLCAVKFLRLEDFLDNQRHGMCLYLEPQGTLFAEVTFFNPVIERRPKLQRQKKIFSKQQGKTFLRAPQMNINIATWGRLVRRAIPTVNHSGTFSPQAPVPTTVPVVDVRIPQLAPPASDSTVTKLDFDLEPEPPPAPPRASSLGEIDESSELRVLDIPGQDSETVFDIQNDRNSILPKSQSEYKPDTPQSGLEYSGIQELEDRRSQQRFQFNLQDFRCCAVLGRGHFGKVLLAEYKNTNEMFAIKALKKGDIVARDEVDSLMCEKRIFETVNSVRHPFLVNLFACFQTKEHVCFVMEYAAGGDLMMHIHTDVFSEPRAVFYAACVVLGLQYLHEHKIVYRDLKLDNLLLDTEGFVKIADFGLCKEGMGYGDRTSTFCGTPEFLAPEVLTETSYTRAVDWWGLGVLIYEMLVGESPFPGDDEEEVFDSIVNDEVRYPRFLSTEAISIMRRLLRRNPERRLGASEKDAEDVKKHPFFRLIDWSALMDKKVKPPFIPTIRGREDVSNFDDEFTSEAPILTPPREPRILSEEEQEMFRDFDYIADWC

[5] = molecular target: Casein kinase I isoform alpha (Homo sapiens, UniProt P48729)
Sequence of Casein kinase I isoform alpha (P48729 whole entry, canonical isoform): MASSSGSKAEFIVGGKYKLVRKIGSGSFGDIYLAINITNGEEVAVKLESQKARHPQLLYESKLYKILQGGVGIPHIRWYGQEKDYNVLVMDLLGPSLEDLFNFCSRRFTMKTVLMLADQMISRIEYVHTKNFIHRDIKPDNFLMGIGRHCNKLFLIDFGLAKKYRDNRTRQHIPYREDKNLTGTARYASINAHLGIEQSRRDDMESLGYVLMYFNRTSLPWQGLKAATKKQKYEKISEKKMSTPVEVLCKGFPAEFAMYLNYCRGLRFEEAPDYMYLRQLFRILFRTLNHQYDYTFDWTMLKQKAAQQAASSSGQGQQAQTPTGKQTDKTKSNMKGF

| SMILES | Kd [1] | Kd [2] | Kd (Ephrin type-B receptor 6) | Kd [3] | Kd [4] | Kd [5] |
| --- | --- | --- | --- | --- | --- | --- |
| Cc1ccc(-n2nc(C(C)(C)C)cc2NC(=O)NCc2cc(F)ccc2Oc2ccc3c(cnn3CCO)c2)cc1 [PEXMETINIB] | > 30 µM (inactive) | > 30 µM (inactive) | > 30 µM (inactive) | > 30 µM (inactive) | > 30 µM (inactive) | > 30 µM (inactive) |
| CC(=O)Nc1cccc(-n2c(=O)n(C3CC3)c(=O)c3c(Nc4ccc(I)cc4F)n(C)c(=O)c(C)c32)c1 [TRAMETINIB] | > 30 µM (inactive) | > 30 µM (inactive) | > 30 µM (inactive) | > 30 µM (inactive) | > 30 µM (inactive) | > 30 µM (inactive) |
| COC(=O)N[C@@H](C)CNc1nccc(-c2cn(C(C)C)nc2-c2cc(Cl)cc(NS(C)(=O)=O)c2F)n1 [ENCORAFENIB] | > 30 µM (inactive) | > 30 µM (inactive) | > 30 µM (inactive) | > 30 µM (inactive) | > 30 µM (inactive) | 3.33 µM (active) |
| O=C(Nc1ccc(-c2ccnc(Nc3ccc(N4CCOCC4)cc3)n2)cc1)C1CCCN1 (centres undefined) [XL-019] | > 30 µM (inactive) | 0.202 µM (active) | > 30 µM (inactive) | 2.96 µM (active) | > 30 µM (inactive) | > 30 µM (inactive) |
| CCn1c(=O)c(-c2cc[nH]n2)cc2c(C)nc(N)nc21 [VOXTALISIB] | > 30 µM (inactive) | > 30 µM (inactive) | > 30 µM (inactive) | > 30 µM (inactive) | > 30 µM (inactive) | > 30 µM (inactive) |
| COc1ccc(-c2ccc3c(N4CCOC[C@@H]4C)nc(N4CCOC[C@@H]4C)nc3n2)cc1CO [AZD-8055] | > 30 µM (inactive) | > 30 µM (inactive) | > 30 µM (inactive) | > 30 µM (inactive) | > 30 µM (inactive) | > 30 µM (inactive) |
| Cn1cc(-c2ccc(F)c(C(F)(F)F)c2)nc1C1CCN(c2ncnc3[nH]ncc23)CC1 [LY-2584702] | > 30 µM (inactive) | > 30 µM (inactive) | > 30 µM (inactive) | > 30 µM (inactive) | > 30 µM (inactive) | > 30 µM (inactive) |
| N[C@@H]1CCCN(c2c(/C=C3\SC(=O)NC3=O)cccc2-c2ccccc2)C1 | > 30 µM (inactive) | > 30 µM (inactive) | > 30 µM (inactive) | > 30 µM (inactive) | > 30 µM (inactive) | > 30 µM (inactive) |
| CNC(=O)CN1CCC(Oc2cc3c(Nc4cccc(Cl)c4F)ncnc3cc2OC)CC1 [SAPITINIB] | > 30 µM (inactive) | > 30 µM (inactive) | > 30 µM (inactive) | > 30 µM (inactive) | > 30 µM (inactive) | > 30 µM (inactive) |
| COc1cc(CCc2cc(NC(=O)c3ccc(N4C[C@@H](C)N[C@@H](C)C4)cc3)n[nH]2)cc(OC)c1 [AZD-4547] | > 30 µM (inactive) | > 30 µM (inactive) | > 30 µM (inactive) | > 30 µM (inactive) | > 30 µM (inactive) | > 30 µM (inactive) |
| CNC(=O)c1ccc(C)c(-n2c(C)cc(OCc3ccc(F)cc3F)c(Br)c2=O)c1 [PH-797804] | > 30 µM (inactive) | > 30 µM (inactive) | > 30 µM (inactive) | > 30 µM (inactive) | > 30 µM (inactive) | > 30 µM (inactive) |
| CNC(=O)c1cc(Oc2ccc(NC(=O)Nc3ccc(Cl)c(C(F)(F)F)c3)c(F)c2)ccn1 [REGORAFENIB] | > 30 µM (inactive) | > 30 µM (inactive) | > 30 µM (inactive) | > 30 µM (inactive) | > 30 µM (inactive) | > 30 µM (inactive) |
| COCCNCc1ccc(-c2cc3nccc(Oc4ccc(NC(=S)NC(=O)Cc5ccc(F)cc5)cc4F)c3s2)nc1 [GLESATINIB] | > 30 µM (inactive) | > 30 µM (inactive) | > 30 µM (inactive) | > 30 µM (inactive) | > 30 µM (inactive) | > 30 µM (inactive) |
| CCN1CCN(Cc2ccc(-c3cc4c(N[C@H](C)c5ccccc5)ncnc4[nH]3)cc2)CC1 [AEE-788] | > 30 µM (inactive) | > 30 µM (inactive) | > 30 µM (inactive) | > 30 µM (inactive) | > 30 µM (inactive) | > 30 µM (inactive) |
